Source: patent publication EP0745595A1, “3-(3-Aryloxyphenyl)-1-(substituted methyl)-s-triazine-2,4,6-oxo or thiotrione herbicidal agents” (American Cyanamid Company, priority 1995, dated 1996)

What was measured:
Format in all cases: in vivo
[…] = Preemergence evaluation in the presence of transplanted rice under flooded paddy conditions (Example 43), MOOVA (Monochoria); conditions: applied three days after sowing, 25 to 30 days after treatment
Protocol: (§1) Results of herbicide evaluation are expressed on a rating scale (0-9). The scale is based upon a visual observation of plant stand, vigor, malformation, size, chlorosis and overall plant appearance as compared with a control.
(§2) In this example, Deluvian paddy soil (Toyokawa paddy soil) is placed in plastic pots, 100cm^2 x 9 cm in depth. Water is added to the level of the soil surface in the pot and the mixture is paddled 3 cm in depth.
(§3) Pots are then variously sown with monocotyledenous weed seeds and tubers at 0-2 cm in soil depth, as well as transplanted rice plants at the 2.5 leaf stage. The rice plants are transplanted at about 3 cm soil depth. Water is then added to all of the pots to 3 cm deep and kept at a depth of 3 cm for the duration of the test. Test compounds are applied in the manner described in Example 42 three days after transplanting the rice plants and sowing the weed seeds and tubers. The pots are then placed on greenhouse benches and cared for in the conventional manner. Tests are examined at 25 to 30 days after treatment and rated according to the rating system provided in Example 40. The compounds evaluated are reported by compound number given in Example 40.

SCIRPUS JUNCOIDES = assay: Preemergence evaluation in the presence of transplanted rice under flooded paddy conditions (Example 43), SCPJU (Bulrush, Japanese); parameters: key: visual rating on a 0-9 scale, compared with control; conditions: applied three days after sowing, 25 to 30 days after treatment
Protocol: as §1, §2, §3

ECHINOCHLOA CRUS-GALLI = assay: Preemergence evaluation in the presence of transplanted rice under flooded paddy conditions (Example 43), ECHCG (Barnyard Grass); parameters: key: visual rating on a 0-9 scale, compared with control; conditions: applied three days after sowing, 25 to 30 days after treatment
Protocol: as §1, §2, §3

CYPERUS DIFFORMIS = assay: Preemergence evaluation in the presence of transplanted rice under flooded paddy conditions (Example 43), CYPDI (Flatsedge, smallflower); parameters: key: visual rating on a 0-9 scale, compared with control; conditions: applied three days after sowing, 25 to 30 days after treatment
Protocol: as §1, §2, §3

SAGITTARIA PYGMAEA = assay: Preemergence evaluation in the presence of transplanted rice under flooded paddy conditions (Example 43), SAGPY (Arrowhead (Pygmaea)); parameters: key: visual rating on a 0-9 scale, compared with control; conditions: applied three days after sowing, 25 to 30 days after treatment
Protocol: as §1, §2, §3

[1] = test system: ORYZA SATIVA, L. CV. KOSHIHIKARI; assay: Post-transplant rice evaluation under flooded paddy conditions (Example 43), ORYSAK (Rice, Koshihikari); parameters: key: visual rating on a 0-9 scale, compared with control; conditions: applied three days after transplanting rice, 25 to 30 days after treatment
Protocol: as §1, §2, §3

[2] = test system: ECHINOCHLOA CRUS-GALLI, (L) BEAU; assay: Preemergence herbicidal evaluation, ECHCG (Barnyardgrass); conditions: four to five weeks after treatment
In short: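 Barnyardgrass seeds were mixed with potting soil and planted on about one inch of soil in pint cups for preemergence testing. Treated cups were kept on greenhouse benches, watered and maintained by standard greenhouse practice. After four to five weeks, each cup was visually rated on a 0-9 scale against an untreated control.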

[3] = test system: ABUTILON THEOPHRASTI, MEDIC.; assay: Preemergence herbicidal evaluation, ABUTH (Velvetleaf); conditions: four to five weeks after treatment
In short: (§4)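 Seeds mixed with potting soil were planted on about one inch of soil in cups, then sprayed with aqueous acetone solution of test compound at about 0.125 to 0.50 kg per hectare. Plants grown under greenhouse conditions; visual rating on a 0-9 scale versus untreated control at 4-5 weeks.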

[4] = test system: TRITICUM AESTIVUM, CV. APOLLO; assay: Preemergence herbicidal evaluation, TRZAWO (Wheat, Winter, CV. APOLLO); conditions: four to five weeks after treatment
In short: as §4

| SMILES | Herbicidal effect rating, MOOVA ([…]; 0.032 kg/ha) | Herbicidal effect rating, MOOVA ([…]; 0.063 kg/ha) | Herbicidal effect rating, MOOVA ([…]; 0.125 kg/ha) | Herbicidal effect rating, MOOVA ([…]; 0.250 kg/ha) | Herbicidal effect rating, SCPJU (SCIRPUS JUNCOIDES; 0.032 kg/ha) | Herbicidal effect rating, SCPJU (SCIRPUS JUNCOIDES; 0.063 kg/ha) | Herbicidal effect rating, SCPJU (SCIRPUS JUNCOIDES; 0.125 kg/ha) | Herbicidal effect rating, SCPJU (SCIRPUS JUNCOIDES; 0.250 kg/ha) | Herbicidal effect rating, ECHCG (ECHINOCHLOA CRUS-GALLI; 0.032 kg/ha) | Herbicidal effect rating, ECHCG (ECHINOCHLOA CRUS-GALLI; 0.063 kg/ha) | Herbicidal effect rating, ECHCG (ECHINOCHLOA CRUS-GALLI; 0.125 kg/ha) | Herbicidal effect rating, ECHCG (ECHINOCHLOA CRUS-GALLI; 0.250 kg/ha) | Herbicidal effect rating, CYPDI (CYPERUS DIFFORMIS; 0.032 kg/ha) | Herbicidal effect rating, CYPDI (CYPERUS DIFFORMIS; 0.063 kg/ha) | Herbicidal effect rating, CYPDI (CYPERUS DIFFORMIS; 0.125 kg/ha) | Herbicidal effect rating, CYPDI (CYPERUS DIFFORMIS; 0.250 kg/ha) | Herbicidal effect rating, SAGPY (SAGITTARIA PYGMAEA; 0.032 kg/ha) | Herbicidal effect rating, SAGPY (SAGITTARIA PYGMAEA; 0.063 kg/ha) | Herbicidal effect rating, SAGPY (SAGITTARIA PYGMAEA; 0.125 kg/ha) | Herbicidal effect rating, SAGPY (SAGITTARIA PYGMAEA; 0.250 kg/ha) | other results |
| --- | --- | --- | --- | --- | --- | --- | --- | --- | --- | --- | --- | --- | --- | --- | --- | --- | --- | --- | --- | --- | --- |
| COC(=O)Cn1c(=O)n(C)c(=O)n(-c2cc(Oc3c(F)cc(C(F)(F)F)cc3Cl)ccc2F)c1=O [Compound 4, Methyl 3-{5-[(2-chloro-α,α,α,6-tetrafluoro-p-tolyl)oxy]-2-fluorophenyl}tetrahydro-5-methyl-2,4,6-trioxo-s-triazine-1(2H)-acetate] | 9.0 | 9.0 | 9.0 | 9.0 | 7.0 | 9.0 | 9.0 | 9.0 | 9.0 | 9.0 | 9.0 | 9.0 | 9.0 | 9.0 | 9.0 | 9.0 | 0.0 | 2.0 | 6.0 | 9.0 | Herbicidal effect rating, ORYSAK ([1]; 0.032 kg/ha): 1.0; Herbicidal effect rating, ORYSAK ([1]; 0.063 kg/ha): 4.0; Herbicidal effect rating, ORYSAK ([1]; 0.125 kg/ha): 7.0; Herbicidal effect rating, ORYSAK ([1]; 0.250 kg/ha): 9.0 |
| COC(=O)Cn1c(=O)[nH]c(=O)n(-c2cc(Oc3ccc(C(F)(F)F)cc3Cl)ccc2[N+](=O)[O-])c1=O [Compound 8, Methyl 3-{5-[(2-chloro-α,α,α-trifluoro-p-tolyl)oxy]-2-nitrophenyl}tetrahydro-2,4,6-trioxo-s-triazine-1(2H)-acetate] | 7.0 | 9.0 | 9.0 | 9.0 | 1.0 | 5.0 | 7.0 | 8.0 | 8.0 | 8.0 | 9.0 | 9.0 | 7.0 | 9.0 | 9.0 | 9.0 | 1.0 | 3.0 | 6.0 | 8.0 | ECHCG rating ([2]; Rate 0.125 kg/ha): 0.0; ECHCG rating ([2]; Rate 0.250 kg/ha): 0.0; ECHCG rating ([2]; Rate 0.500 kg/ha): 0.0; ABUTH rating ([3]; Rate 0.125 kg/ha): 9.0; ABUTH rating ([3]; Rate 0.250 kg/ha): 9.0; ABUTH rating ([3]; Rate 0.500 kg/ha): 9.0; Herbicidal effect rating, ORYSAK ([1]; 0.032 kg/ha): 2.0; Herbicidal effect rating, ORYSAK ([1]; 0.063 kg/ha): 3.0; Herbicidal effect rating, ORYSAK ([1]; 0.125 kg/ha): 2.0; Herbicidal effect rating, ORYSAK ([1]; 0.250 kg/ha): 6.0; TRZAWO rating ([4]; Rate 0.125 kg/ha): 3.0; TRZAWO rating ([4]; Rate 0.250 kg/ha): 3.0; TRZAWO rating ([4]; Rate 0.500 kg/ha): 3.0 |
